Laboratory results from PubChem BioAssay AID330 (DTP/NCI, 2004).
Values joined by “and” are separate entries in the source; they are usually repeats but may differ in a detail not shown here. Equal values may be shown once. Inconclusive results and toxic doses are left out. Rule for the calls: active = survival T/C of 150% or more; inactive = T/C below 125% in these data.

System: P388 leukemia ip, CD2F1 mice, survival T/C
Assay: NCI In Vivo Anticancer Drug Screen. Data for tumor model P388 Leukemia (intraperitoneal) in CD2F1 (CDF1) mice
Settings: endpoint: median survival time, higher = longer survival
Summary of the method: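 Mice carrying the transplanted tumor received test compound or vehicle. Survival was recorded in each group, and the value is the treated-group measurement divided by that of the vehicle-treated control group.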

[1] = dose: 60.0 mg/kg/injection, schedule: Q01DX005 (ip), vehicle: Klucel (hydroxypropylcellulose) (HPC)
[2] = dose: 120.0 mg/kg/injection, schedule: Q01DX005 (ip), vehicle: Klucel (hydroxypropylcellulose) (HPC)
[3] = dose: 6.25 mg/kg/injection, schedule: Q01DX009 (ip), vehicle: saline with Tween-80
[4] = dose: 12.5 mg/kg/injection, schedule: Q01DX009 (ip), vehicle: saline with Tween-80
[5] = dose: 25.0 mg/kg/injection, schedule: Q01DX009 (ip), vehicle: saline with Tween-80
[6] = dose: 50.0 mg/kg/injection, schedule: Q01DX005 (ip), vehicle: saline with Tween-80
[7] = dose: 50.0 mg/kg/injection, schedule: Q01DX009 (ip), vehicle: saline with Tween-80
[8] = dose: 100.0 mg/kg/injection, schedule: Q01DX009 (ip), vehicle: saline with Tween-80

Measured: T/C

CCCCCCCCCCCCCCCCCC[n+]1cccc(C2CCCN2C)c1 (centres undefined) (tested in a mixture with another compound)
inactive: dose: 25.0 mg/kg/injection, schedule: Q01DX009 (ip), vehicle: Klucel (hydroxypropylcellulose) (HPC) 104 % of control

Nc1nc(N)c(CCCOc2ccc(C(=O)O)cc2)c(N)n1
inactive: [1] 93 % of control | [2] 97 % of control

Cl[C](Cl)(Cl)[Hg][C](Cl)(Cl)Cl
inactive: dose: 1.56 mg/kg/injection, schedule: Q01DX009 (ip), vehicle: saline with Tween-80 95 % of control | dose: 3.12 mg/kg/injection, schedule: Q01DX009 (ip), vehicle: saline with Tween-80 90 % of control and 96 % of control | [3] 87 % of control

CC12CC[C]([Hg][I])(CC1)C2(C)C
inactive: [3] 105 % of control | [4] 112 % of control | [5] 107 % of control

CC(C)CC(C(=O)O)N(CC(=O)O)CC(=O)O (centres undefined)
inactive: dose: 12.5 mg/kg/injection, schedule: Q01DX005 (ip), vehicle: saline 97 % of control | dose: 25.0 mg/kg/injection, schedule: Q01DX005 (ip), vehicle: saline 87 % of control | dose: 50.0 mg/kg/injection, schedule: Q01DX005 (ip), vehicle: saline 98 % of control

FC(F)(F)C1(C(F)(F)F)O[Te]2(OC(C(F)(F)F)(C(F)(F)F)c3ccccc32)c2ccccc21
inactive: dose: 80.0 mg/kg/injection, schedule: Q04DX002 (ip), vehicle: Klucel (hydroxypropylcellulose) (HPC) 96 % of control | dose: 160.0 mg/kg/injection, schedule: Q04DX002 (ip), vehicle: Klucel (hydroxypropylcellulose) (HPC) 102 % of control | dose: 320.0 mg/kg/injection, schedule: Q04DX002 (ip), vehicle: Klucel (hydroxypropylcellulose) (HPC) 105 % of control

C=C(C)C1CCC(C)CC(=O)C1 (centres undefined)
inactive: dose: 100.0 mg/kg/injection, schedule: Q04DX003 (ip), vehicle: saline + Tween-80 + alcohol 100 % of control | dose: 200.0 mg/kg/injection, schedule: Q04DX003 (ip), vehicle: saline + Tween-80 + alcohol 91 % of control | dose: 400.0 mg/kg/injection, schedule: Q04DX003 (ip), vehicle: saline + Tween-80 + alcohol 91 % of control

O=S(=O)(O)c1cc2nonc2c2ccccc12
inactive: [6] 98 % of control | dose: 100.0 mg/kg/injection, schedule: Q01DX005 (ip), vehicle: saline with Tween-80 98 % of control | dose: 200.0 mg/kg/injection, schedule: Q01DX005 (ip), vehicle: saline with Tween-80 95 % of control

COC1/C=C/OC2(C)Oc3c(C)c(O)c4c(O)c(c(/C=N/N(C)C(C)C(O)c5ccccc5)c(O)c4c3C2=O)NC(=O)C(C)=C/C=C/C(C)C(O)C(C)C(O)C(C)C(OC(C)=O)C1C (centres undefined)
inactive: [4] 120 % of control | [5] 116 % of control | [7] 109 % of control and 116 % of control | [8] 111 % of control

CC1=C(O)C(=O)C(C)=C(O)C1=O
inactive: dose: 12.5 mg/kg/injection, schedule: Q01DX001 (ip), vehicle: Klucel (hydroxypropylcellulose) (HPC) 112 % of control | dose: 25.0 mg/kg/injection, schedule: Q01DX001 (ip), vehicle: Klucel (hydroxypropylcellulose) (HPC) 112 % of control | dose: 50.0 mg/kg/injection, schedule: Q01DX001 (ip), vehicle: Klucel (hydroxypropylcellulose) (HPC) 111 % of control

CN(C)C(=[Se])[Se]C(=[Se])N(C)C
inactive: dose: 3.75 mg/kg/injection, schedule: Q01DX005 (ip), vehicle: Klucel (hydroxypropylcellulose) (HPC) 99 % of control | dose: 7.5 mg/kg/injection, schedule: Q01DX005 (ip), vehicle: Klucel (hydroxypropylcellulose) (HPC) 99 % of control | dose: 15.0 mg/kg/injection, schedule: Q01DX005 (ip), vehicle: Klucel (hydroxypropylcellulose) (HPC) 100 % of control

O=C(NC(=O)C(F)(F)F)Nc1cccc(C(F)(F)F)c1
inactive: [7] 114 % of control | [8] 94 % of control | dose: 200.0 mg/kg/injection, schedule: Q01DX009 (ip), vehicle: saline with Tween-80 94 % of control

COc1ccc(OC)c(/C=C/c2ccc([N+](=O)[O-])cc2)c1
inactive: dose: 50.0 mg/kg/injection, schedule: Q01DX009 (ip), vehicle: Klucel (hydroxypropylcellulose) (HPC) 100 % of control | dose: 100.0 mg/kg/injection, schedule: Q01DX009 (ip), vehicle: Klucel (hydroxypropylcellulose) (HPC) 100 % of control | dose: 200.0 mg/kg/injection, schedule: Q01DX009 (ip), vehicle: Klucel (hydroxypropylcellulose) (HPC) 86 % of control

CC(C)n1cnc2c(=S)nc[nH]c21
inactive: [5] 90 % of control | [7] 100 % of control | [8] 109 % of control

O[B]c1nc2ccccc2c2ccccc12
inactive: [1] 105 % of control | [2] 102 % of control | dose: 240.0 mg/kg/injection, schedule: Q01DX005 (ip), vehicle: Klucel (hydroxypropylcellulose) (HPC) 119 % of control

Nc1ccc(C(O)(C(F)(F)F)C(F)(F)F)c(C(=O)O)c1
inactive: dose: 100.0 mg/kg/injection, schedule: Q04DX003 (ip), vehicle: other 104 % of control | dose: 200.0 mg/kg/injection, schedule: Q04DX003 (ip), vehicle: other 100 % of control | dose: 400.0 mg/kg/injection, schedule: Q04DX003 (ip), vehicle: other 109 % of control

NC(N)=N/N=C1\C/C(=N\N=C(N)N)c2cc3ccccc3cc21
inactive: dose: 12.5 mg/kg/injection, schedule: Q01DX001 (ip), vehicle: saline with Tween-80 105 % of control | dose: 25.0 mg/kg/injection, schedule: Q01DX001 (ip), vehicle: saline with Tween-80 102 % of control | dose: 25.0 mg/kg/injection, schedule: Q01DX001 (ip), vehicle: saline 103 % of control | dose: 50.0 mg/kg/injection, schedule: Q01DX001 (ip), vehicle: saline with Tween-80 91 % of control | dose: 50.0 mg/kg/injection, schedule: Q01DX001 (ip), vehicle: saline 98 % of control | dose: 100.0 mg/kg/injection, schedule: Q01DX001 (ip), vehicle: saline with Tween-80 93 % of control | dose: 100.0 mg/kg/injection, schedule: Q01DX001 (ip), vehicle: saline 99 % of control

O=C1OC2(CC1n1cnc3ccccc3c1=O)C(=O)Nc1ccccc12 (centres undefined)
inactive: dose: 8.75 mg/kg/injection, schedule: Q01DX005 (ip), vehicle: Klucel (hydroxypropylcellulose) (HPC) 111 % of control | dose: 17.5 mg/kg/injection, schedule: Q01DX005 (ip), vehicle: Klucel (hydroxypropylcellulose) (HPC) 90 % of control | dose: 35.0 mg/kg/injection, schedule: Q01DX005 (ip), vehicle: Klucel (hydroxypropylcellulose) (HPC) 91 % of control

CCn1c2ccccc2c2cc(N=Nc3cc[n+]([O-])c4c(O)cccc34)ccc21
inactive: dose: 5.0 mg/kg/injection, schedule: Q01DX009 (ip), vehicle: saline with Tween-80 110 % of control | dose: 10.0 mg/kg/injection, schedule: Q01DX009 (ip), vehicle: saline with Tween-80 102 % of control | dose: 20.0 mg/kg/injection, schedule: Q01DX009 (ip), vehicle: saline with Tween-80 106 % of control | dose: 40.0 mg/kg/injection, schedule: Q01DX009 (ip), vehicle: saline with Tween-80 107 % of control | [7] 86 % of control

CC(=C\c1ccc(Cl)c(Cl)c1)/C(C)=N/NC(N)=Nc1ccc(C)cc1
inactive: dose: 25.0 mg/kg/injection, schedule: Q04DX002 (ip), vehicle: saline with Tween-80 103 % of control | dose: 50.0 mg/kg/injection, schedule: Q04DX002 (ip), vehicle: saline with Tween-80 111 % of control

COc1cc2cc(c1Cl)N(C)C(=O)CC(OC(=O)C(C)N(C)C(=O)C(C)C)C1(C)OC1C(C)C1CC(OC)(NC(=O)O1)C(OC)/C=C/C=C(C)C2OC (centres undefined)
inactive: dose: 16.0 mg/kg/injection, schedule: Q01DX009 (ip), vehicle: saline 98 % of control | dose: 32.0 mg/kg/injection, schedule: Q01DX009 (ip), vehicle: saline 114 % of control | dose: 64.0 mg/kg/injection, schedule: Q01DX009 (ip), vehicle: saline 100 % of control | dose: 128.0 mg/kg/injection, schedule: Q01DX009 (ip), vehicle: saline 100 % of control | dose: 4.0 micrograms/kg/injection, schedule: Q01DX009 (ip), vehicle: saline 99 % of control | dose: 8.0 micrograms/kg/injection, schedule: Q01DX009 (ip), vehicle: saline 99 % of control | dose: 16.0 micrograms/kg/injection, schedule: Q01DX009 (ip), vehicle: saline 103 % of control | dose: 32.0 micrograms/kg/injection, schedule: Q01DX009 (ip), vehicle: saline 111 % of control

CCCCC(=S)SSC(C)(C)C
inactive: dose: 12.5 mg/kg/injection, schedule: Q01DX005 (ip), vehicle: saline with Tween-80 108 % of control | dose: 25.0 mg/kg/injection, schedule: Q01DX005 (ip), vehicle: saline with Tween-80 115 % of control | [6] 100 % of control and 114 % of control
